For twelve compounds, GI50 and TGI results are on record in PubChem BioAssay (NCI).

Test in all cases: growth of human tumour cells (NCI), 48 h
For assay [1], the system named is UACC-257 melanoma.
The subject of assay [2] is T-47D breast.
For assay [3], the system named is MCF7 breast.
Assay [4] has as its system EKVX NSCLC.
For assay [5], the system named is SK-OV-3 ovarian.
In assay [6] the test system is MDA-MB-435.
Assay [7] concerns BT-549 breast.

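Tested at 5 concentrations; 48 h exposure; 96-well plates; endpoints linearly interpolated, else capped at highest concentration. Here, GI50 denotes the concentration required for 50% inhibition of growth. TGI is the concentration that stops growth completely.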

As to `CC(C)[C@H](O)C(=O)N[C@H]1Cc2ccc3c(c2)[C@]24C5=C(N=C(O5)[C@H](C(C)C)NC1=O)c1nc(Cl)c(o1)-c1c(Cl)[nH]c5cccc(c15)-c1cccc2c1N[C@H]4O3`, the GI50 in assay [1] and in assay [3] was less than 0.001 µM each time. In addition, the TGI in assay [1] was 3.27 µM; in assay [2], more than 10 µM; in assay [3], more than 10 µM; in assay [4] it was more than 10 µM; in assay [5], more than 10 µM.

In the case of `O=C1C(Nc2cccc(O)c2)=C(Sc2ccc(Cl)cc2)C(=O)N1Cc1ccccc1`, the GI50 in assay [6] was 6.43 µM; in assay [2], 29.1 µM; in assay [3], 5.86 µM; in assay [5], 12.6 µM. Also, the TGI is 20 µM in assay [6], more than 100 µM in assay [2], more than 100 µM in assay [3] and 30.6 µM in assay [5].

Take `C=CC1=C(C)C(Cc2[nH]c(/C=c3\[nH]/c(=C/C4=NC(=O)C(C)/C4=C\C)c(C)c3CCC(=O)O)c(CCC(=O)OC)c2C)NC1=O` (stereo unspecified): the GI50 in assay [1] is 7.9 µM; in assay [6], 23.9 µM; in assay [2], 36.8 µM; in assay [3], 26.7 µM; in assay [4], 47.7 µM; in assay [5] it was 27.9 µM. For the same compound, the TGI was 41.1 µM in assay [1]; 62 µM in assay [6]; more than 100 µM in assay [2]; more than 100 µM in assay [3]; more than 100 µM in assay [4]; 78.2 µM in assay [5].

`CCCCCCCCCCC(CN(CC)CC)C(O)c1ccccc1` (stereo unspecified): the GI50 in assay [7] is 2.02 µM; in assay [1] it was 2.64 µM; in assay [6] it was 1.72 µM; in assay [2], 1.84 µM; in assay [3] it was 1.63 µM; in assay [4], 1.56 µM. Also, the GI50 in assay [5] was 2.78 µM. Moreover, the TGI in assay [7] came out at 4.21 µM; in assay [1], 5.78 µM; in assay [6], 3.23 µM; in assay [2] it was 4.31 µM; in assay [3], 3.15 µM; in assay [4], 3.74 µM. Besides, in assay [5], the TGI was determined as 9.52 µM.

In the case of `NC(N)=N/N=C(/c1ccccc1)c1ccc(O)cc1O`, the TGI in assay [7] was more than 100 µM; in assay [1] it was more than 100 µM; in assay [6], more than 100 µM; in assay [2], more than 100 µM; in assay [3], more than 100 µM; in assay [4] it was 64.7 µM. In assay [5], the TGI is more than 100 µM.

As for `C=C1C(=O)O[C@H]2[C@H]1CC/C(COC(=O)NCc1cccc(OC)c1)=C\CC[C@@]1(C)O[C@@H]21`, the GI50 was 1.51 µM in assay [7]; 1.96 µM in assay [1]; 1.5 µM in assay [6]; 2.31 µM in assay [2]; 2.36 µM in assay [3]; 2 µM in assay [4]. Also, the GI50 in assay [5] was 14.9 µM. Also, the TGI in assay [7] was 3.21 µM; in assay [1], 5.79 µM; in assay [6], 3.22 µM; in assay [2], 6.38 µM; in assay [3], 8.97 µM; in assay [4], 5.81 µM. The TGI in assay [5] was 28.2 µM.

As to `CCCCCC/C=C\CCCCCCCCCc1c(O)c(OC)cc(O)c1CN(C)C`, the TGI amounted to 21 µM in assay [7]; 29.3 µM in assay [1]; 20 µM in assay [6]; 4.2 µM in assay [2]; 7 µM in assay [3]; 23.6 µM in assay [4]. Moreover, the TGI in assay [5] was determined as 28.1 µM.

As to `C=C(CN(CCN1CCOCC1)CC(=C)c1ccc(C(=O)Nc2ccccc2N)cc1)c1ccc(C(=O)Nc2ccccc2N)cc1`, the GI50 in assay [7] is 8.56 µM; in assay [1] it was 3.68 µM; in assay [6], 8.67 µM; in assay [2], 8.33 µM; in assay [3], 11 µM; in assay [4], 14 µM. Also, the GI50 in assay [5] was 8.26 µM. The TGI in assay [7] was 21.2 µM; in assay [1], 13.5 µM; in assay [6], 28.5 µM; in assay [2] it was 47.6 µM; in assay [3], more than 50 µM; in assay [4] it was more than 50 µM. The compound also showed a TGI in assay [5] of 17.2 µM.

On to `Clc1ccc2c(NCCN3CCN(c4ccnc(N5CCCC5)n4)CC3)ccnc2c1`, for which the GI50 in assay [7] was 5.63 µM; in assay [1], 2.29 µM; in assay [6], 1.96 µM; in assay [2], 2.01 µM; in assay [3], 1.96 µM; in assay [4] it was 10.2 µM. Besides, the GI50 in assay [5] was 11.8 µM. For the same compound, the TGI in assay [7] came to 19.4 µM; in assay [1], 4.35 µM; in assay [6], 4.54 µM; in assay [2] it was 5.59 µM; in assay [3], 8.04 µM; in assay [4], 24.4 µM. In addition, the TGI in assay [5] worked out at 34.2 µM.

In the case of `c1cc(-c2cnn3nc(N4CCOCC4)ccc23)nc(NC2CC2)n1`, the GI50 is 8.15 µM in assay [7]; 7.54 µM in assay [1]; 9.94 µM in assay [6]; 8.08 µM in assay [2]; 5.38 µM in assay [3]; 10.5 µM in assay [4]. For the same compound, in assay [5], the GI50 is 14.6 µM. Also, the TGI in assay [7], in assay [1], in assay [6], in assay [2], in assay [3] and in assay [4] was more than 25 µM each time. This compound also came in with a TGI in assay [5] of more than 25 µM.

With `Cc1ccc(C(=O)Nc2ccccc2C(=O)N/N=C(\c2ccccc2)c2ccccn2)cc1`, the GI50 in assay [7] was 0.517 µM; in assay [1] it was 0.999 µM; in assay [6], 0.534 µM; in assay [2], 0.493 µM; in assay [3] it was 0.359 µM; in assay [4], 0.207 µM. In addition, the GI50 in assay [5] is 0.478 µM. Moreover, the TGI in assay [7], in assay [1], in assay [6], in assay [2], in assay [3] and in assay [4] was more than 100 µM throughout. In assay [5], the TGI is more than 100 µM.

For `C=C(C)C1CCC2(CO)C(O)CC3(C)C(CCC4C5(C)CCC(O)C(C)(C)C5CCC43C)C12` (stereo unspecified), the TGI in assay [7] is more than 100 µM; in assay [1], 24.9 µM; in assay [6], 38.3 µM; in assay [2], 11.3 µM; in assay [3] it was 43.6 µM; in assay [4], 32.6 µM.
